The text below walks through data of US20130259884A1, “PEPTIDES” ([…] SL, priority 2010, published 2013).

Where a SMILES comes first, the peptide text is derived from it.

The solubility is the concentration that dissolves in the medium under given conditions.

This data set in a line: Water solubility of peptides when preparing stock solutions. In kind it is physicochemical. The following applies: stock solution in sterile distilled water or 100% DMSO; read-out: solubility of peptide (water soluble or water insoluble, dissolved in DMSO). As for the experimental part:
For challenge, peptides were administered as follows: • Individual peptides (soluble). Individual water soluble peptides were dissolved as 10, 5 or 2.5 mg/ml stock solutions in sterile distilled water. Before use, each peptide was diluted in water to 2 mg/ml and 10 μl of this 2 mg/ml mix was added to 990 μl of media. Then 100 μl of this peptide/media mix was added to 100 μl of media containing 350,000 PBMC in an ELISPOT anti-IL-4 coated cell culture plate well for a final peptide concentration of 10 μg/ml. Identically diluted media only was added to the cells and used for the no peptide media control wells (media only). • Individual peptides (DMSO). Individual water insoluble peptides were dissolved in 100% DMSO to a stock concentration of 50 mg/ml. Before use each peptide was diluted in water to 2 mg/ml and then 10 μl of the 2 mg/ml mix was added to 990 μl of cell-culture media. Then 100 μl of this peptide/media mix was added to 100 μl of media containing 350,000 PBMC in an ELISPOT anti-IL-4 coated cell culture plate well for a final peptide concentration of 10 μg/ml. Identically diluted media only was added to the cells and used for the no peptide media control wells (media only). • A combination preparation containing Alt a 1 soluble peptides (33.2, 34.3, 35.4, 35.5, 37.3.1, 37.4.1, L6-5.01, L10-1.01, L10-2.01, L10-3), called Alt a 1 Sol. Each peptide was diluted from water stock to 2 mg/ml in sterile distilled water. Then 10 μl of each peptide required for the combined preparation was mixed and brought up to 1 ml in media. Then 100 μl of this peptide/media mix was added to 100 μl of media containing 350,000 PBMC in an ELISPOT anti-IL-4 coated cell culture plate well for a final concentration of each peptide of 10 μg/ml. Identically diluted media only was used for the no peptide control wells (media only). • A combination preparation containing Alt a 1 DMSO peptides (32.2.1, 38.2.1, 35.2, 35.3, L6-2, L6-3, L6-4, 38.3, 37.2), called Alt a 1 DMSO. Each peptide was diluted from DMSO stock to 2 mg/ml in sterile distilled water. Then 10 μl of each peptide required for the combined preparation was mixed and brought up to 1 ml in media. Then 100 μl of this peptide/media mix is added to 100 μl of media containing 350,000 PBMC in an ELISPOT anti-IL-4 coated cell culture plate well for a final concentration of each peptide of 10 μg/ml. Identically diluted media only was used for the no peptide control wells (media only). • A combination preparation containing non-Alt a 1 soluble peptides (40.2, 41.2, 43.2, 44.2, 46.2, 47.2.1, 56.2, 57.2.1, 60.2, 62.2.1, 67.2, 71.3), called Alt a Other Sol. Each peptide was diluted from water stock to 2 mg/ml in sterile distilled water. Then 10 μl of each peptide required for the combined preparation was mixed and brought up to 1 ml in media, Then 100 μl of this peptide/media mix was added to 100 μl of media containing 350,000 PBMC in an ELISPOT anti-IL-4 coated cell culture plate well for a final concentration of each peptide at 10 μg/ml. Identically diluted media only was used for the no peptide control wells (media only). • A combination preparation containing non-Alt a 1 DMSO peptides (39.2, 42.2, 45.2, 48.2.1, 50.2, 51.2.1, 61.2.1, 66.3.1, 68.2.1, 70.2, 71.2, 72.2), called Alt a Other DMSO. Each peptide was diluted from DMSO stock to 2 mg/ml in sterile distilled water. Then 10 ul of each peptide required for the combined preparation was mixed and brought up to 1 ml in media, Then 100 μl of this peptide/media mix was added to 100 μl of media containing 350,000 PBMC in an ELISPOT anti-IL-4 coated cell culture plate well for a final concentration of each peptide at 10 μg/ml. Identically diluted media only was used for the no peptide control wells (media only).
Turning to `CC[C@H](C)[C@H](NC(=O)[C@H](C)N)C(=O)N[C@@H](CCC(=O)O)C(=O)N[C@@H](CC(C)C)C(=O)N[C@@H](CCCCN)C(=O)N[C@@H](CO)C(=O)N[C@H](C(=O)N[C@@H](CC(N)=O)C(=O)N[C@@H](C)C(=O)N[C@@H](CC(C)C)C(=O)N[C@@H](CC(C)C)C(=O)N[C@@H](CC(C)C)C(=O)N[C@@H](CCCCN)C(=O)N[C@H](C(=O)N[C@@H](CC(N)=O)C(=O)O)C(C)C)C(C)C` [Peptide 61.2.1, AIELKSVNALLLKVN] (H-AIELKSVNALLLKVN-OH), the solubility was less than 2500 µg/mL.
On to `CC[C@H](C)[C@H](NC(=O)[C@H](Cc1ccccc1)NC(=O)[C@H](Cc1ccc(O)cc1)NC(=O)CNC(=O)[C@H](CCCCN)NC(=O)[C@@H](N)CC(=O)O)C(=O)N[C@@H](CCC(=O)O)C(=O)N1CCC[C@H]1C(=O)N[C@H](C(=O)N[C@H](C(=O)N[C@@H](Cc1ccccc1)C(=O)N[C@@H](CO)C(=O)N[C@@H](CC(N)=O)C(=O)N[C@H](C(=O)N[C@H](C(=O)O)[C@@H](C)O)C(C)C)[C@@H](C)CC)[C@@H](C)O` [Peptide 70.2, DKGYFIEPTIFSNVT] (H-DKGYFIEPTIFSNVT-OH; N-terminus and C-terminus assumed), for which the solubility is less than 2500 µg/mL.
`CC[C@H](C)[C@H](NC(=O)[C@H](CC(N)=O)NC(=O)[C@H](Cc1ccccc1)NC(=O)CN)C(=O)N[C@@H](CCCCN)C(=O)N[C@@H](C)C(=O)N[C@H](C(=O)N[C@@H](CC(N)=O)C(=O)NCC(=O)NCC(=O)N[C@H](C(=O)N[C@@H](CC(C)C)C(=O)N[C@@H](CC(=O)O)C(=O)N[C@@H](Cc1ccccc1)C(=O)N[C@H](C(=O)O)[C@@H](C)O)[C@@H](C)O)[C@@H](C)O` [Peptide 35.5, GFNIKATNGGTLDFT] (H-GFNIKATNGGTLDFT-OH): the solubility is more than 2500 µg/mL.
`CC[C@H](C)[C@H](NC(=O)[C@H](CO)NC(=O)[C@@H](NC(=O)[C@@H](NC(=O)[C@H](CCCCN)NC(=O)[C@@H](NC(=O)[C@H](CCC(N)=O)NC(=O)[C@@H](NC(=O)[C@H](Cc1ccc(O)cc1)NC(=O)[C@H](CC(N)=O)NC(=O)[C@H](CC(=O)O)NC(=O)[C@@H](N)CC(C)C)[C@@H](C)CC)[C@@H](C)O)[C@@H](C)O)C(C)C)C(=O)N[C@@H](CCCNC(=N)N)C(=O)N[C@@H](CC(C)C)C(=O)NCC(=O)O` [Peptide 71.2, LDNYIQTKTVSIRLG] (H-LDNYIQTKTVSIRLG-OH): the solubility is less than 2500 µg/mL.
In the case of `CC(C)[C@H](NC(=O)[C@H](Cc1ccc(O)cc1)NC(=O)[C@H](CO)NC(=O)[C@H](CO)NC(=O)[C@H](C)NC(=O)[C@H](CC(=O)O)NC(=O)[C@H](CO)NC(=O)[C@H](C)NC(=O)[C@H](Cc1ccccc1)NC(=O)[C@H](Cc1ccc(O)cc1)NC(=O)[C@@H](NC(=O)[C@H](Cc1ccc(O)cc1)NC(=O)[C@H](C)NC(=O)CNC(=O)[C@@H](N)CCCCN)C(C)C)C(=O)O` [Peptide 68.2.1, KGAYVYFASDASSYV] (H-KGAYVYFASDASSYV-OH) it was less than 2500 µg/mL; in that of `CC[C@H](C)[C@H](NC(=O)[C@H](CCC(N)=O)NC(=O)CNC(=O)[C@H](CO)NC(=O)[C@H](CCCNC(=N)N)NC(=O)[C@H](CC(C)C)NC(=O)CNC(=O)[C@@H](NC(=O)[C@@H](NC(=O)[C@@H](NC(=O)[C@H](CC(=O)O)NC(=O)[C@H](C)N)[C@@H](C)CC)C(C)C)C(C)C)C(=O)N[C@@H](CCCCN)C(=O)N[C@H](C(=O)NCC(=O)O)[C@@H](C)O` [Peptide 44.2, ADIVVGLRSGQIKTG] (H-ADIVVGLRSGQIKTG-OH), more than 2500 µg/mL; in that of `CC[C@H](C)[C@H](NC(=O)[C@H](CC(N)=O)NC(=O)[C@H](Cc1ccccc1)NC(=O)CNC(=O)[C@H](CC(C)C)NC(=O)[C@H](CO)NC(=O)[C@H](CC(N)=O)NC(=O)[C@@H](N)Cc1ccc(O)cc1)C(=O)N[C@@H](CCCCN)C(=O)N[C@@H](C)C(=O)N[C@H](C(=O)N[C@@H](CC(N)=O)C(=O)NCC(=O)NCC(=O)N[C@H](C(=O)O)[C@@H](C)O)[C@@H](C)O` [Peptide 35.3, YNSLGFNIKATNGGT] (H-YNSLGFNIKATNGGT-OH), less than 2500 µg/mL.
